Converted amounts (≈) assume the structure as drawn. Structures can show the parent of a compound that is named as a salt. One block for each compound: values may come before it.
How the values were obtained:
[1] = Thermodynamic solubility in buffer at 24 h (HPLC of supernatant); format: physicochemical; settings: for solubility at 24 h: 0.2 m hcl/kcl, as free-base
From the text: The solubility of a compound may be assessed by adding a surplus of the compound to a volume of solvent such that some of the compound is not dissolved, then isolating the non-dissolved compound and measuring the amount. The solubility of a compound may alternatively be assessed by adding a surplus of the compound to a volume of solvent such that some of the compound is not dissolved, and then measure the amount of compound in solution. Measuring the amount of compound in solution may be done using any suitable method, such as HPLC, titration, or spectrometry.
The solubility of AP1189 freebase, tosylate salt and fumarate salt were assessed in buffer solutions. An amount of the compound was suspended in buffer and agitated at ambient temperature for 24 hr, before the supernatant was sampled and analysed for the content of AP1189 by HPLC.

[2] = system: MC1R; settings: biased dual agonist; cited from earlier work
[3] = Initial polymorphism assessment: solubility of AP1189 freebase in solvent systems (aliquot addition); format: physicochemical; settings: ambient, gently heated to ca. 40 °C if solid remained
Method: An initial polymorphism assessment was carried out in order to identify any potential alternate forms. The initial polymorphism assessment was carried out as follows: To ca. 7 mg of freebase Pattern 1 from DCM evaporation the appropriate solvent system was added in aliquots of 50 μL and if solid remained the vial was gently heated to ca. 40 °C to aid dissolution. Solvent addition was continued until the material had fully dissolved or 1 mL of the appropriate solvent system had been added (<10 mg/mL). Anti-solvent (t-BME) was added dropwise (with stirring) at ambient. If the solutions were already present as slurries prior to addition of anti-solvent, no anti-solvent was added. The experiments were temperature cycled between ambient temperature and 40 °C in 4 hour cycles for ca. 24 h with agitation. Slurries were isolated by centrifugation and solutions allowed to evaporate at ambient temperature. XRPD analysis was carried out for the solids which were obtained.

[4] = system: cAMP generation (MC1R and MC3R); settings: cited from earlier work
[5] = system: MC1R; settings: cited from earlier work
[6] = system: Ca^2± mobilisation; settings: alternative pathways; cited from earlier work
[7] = system: ERK1/2-phosphorylation; settings: alternative pathways; cited from earlier work
[8] = system: MC1R-induced melanogenesis; settings: cited from earlier work
[9] = system: MC3R; settings: biased dual agonist; cited from earlier work

solubility at 24 h ([1]; pH 1.29, 0.2 M HCl/KCl, initial pH 2.05 → 1.24, 24 h pH 1.29, input 83* mM (estimated), ambient temperature): > 44.1 mM | solubility at 24 h ([1]; pH 1.54, FaSSGF (Fasted State Simulated Gastric Fluid), initial pH 1.60, 24 h pH 1.54, ambient temperature): 13.9 mM (≈ 4140 µg/mL)
Structure (SMILES): NC(N)=N/N=C/C=C/c1cccn1-c1ccccc1[N+](=O)[O-] [AP1189 freebase Pattern 1, 2-{3-[1-(2-nitrophenyl)-1H-pyrrol-2-yl]prop-2-en-1-ylidine}hydrazine-1-carboximidamide]
Solubility at pH 4.5 (in words) ([1]; pH 4.5, compared to AP1189 fumarate Pattern 1): high solubility at pH 4.5 compared to test compound AP1189 fumarate Pattern 1

Solubility at acidic conditions (in words) ([1]; acidic conditions): highly soluble at acidic conditions | Solubility at pH 1.2 (in words) [1]: high solubility at pH 1.2 | solubility ([3]; Water): < 7000 µg/mL | solubility ([3]; organic solvent or mixture, 2-Methyl THF): ≥ 10000 µg/mL | solubility ([3]; organic solvent or mixture, 2-Propanol): < 7000 µg/mL | solubility ([3]; organic solvent or mixture, 90% 2-Propanol: 10% Water (% v/v) (calculated aw 0.6)): ≥ 10000 µg/mL | solubility ([3]; organic solvent or mixture, 98.5% Ethanol : 1.5% Water (% v/v) (calculated aw 0.2)): ≥ 15000 µg/mL | solubility ([3]; organic solvent or mixture, Acetone): ≥ 49000 µg/mL | solubility ([3]; organic solvent or mixture, Acetonitrile): ≥ 27000 µg/mL | solubility ([3]; organic solvent or mixture, Dichloromethane): < 7000 µg/mL | solubility ([3]; organic solvent or mixture, Dimethylsulfoxide): ≥ 136000 µg/mL | solubility ([3]; organic solvent or mixture, Ethanol): ≥ 13000 µg/mL | solubility ([3]; organic solvent or mixture, Ethyl Acetate): < 7000 µg/mL | solubility ([3]; organic solvent or mixture, Heptane): < 7000 µg/mL | solubility ([3]; organic solvent or mixture, Methanol): ≥ 142000 µg/mL | solubility ([3]; organic solvent or mixture, Methylethyl Ketone): ≥ 17000 µg/mL | solubility ([3]; organic solvent or mixture, Methylisobutyl Ketone): < 7000 µg/mL | solubility ([3]; organic solvent or mixture, Tetrahydrofuran): ≥ 35000 µg/mL | solubility ([3]; organic solvent or mixture, Toluene): < 7000 µg/mL | solubility ([3]; organic solvent or mixture, tert-Butylmethyl ether): < 7000 µg/mL
Structure (SMILES): NC(N)=N/N=C/C=C/c1cccn1-c1ccccc1[N+](=O)[O-] [AP1189, 2-{3-[1-(2-nitrophenyl)-1H-pyrrol-2-yl]prop-2-en-1-ylidine}hydrazine-1-carboximidamide]
agonism at MC1R [2]: biased dual agonist at receptors MC1R and MC3R | Solubility at pH 1.2 (in words) ([1]; listed as AP1189 free base): high solubility at pH 1.2 compared to the test compound AP1189 fumarate Pattern 1 | canonical cAMP generation [4]: does not provoke canonical cAMP generation | binding to MC1R [5]: shown to bind the MC1R | Ca2+ mobilisation [6]: appear to induce alternative pathways including ERK1/2-phosphorylation and Ca^2 mobilisation | ERK1/2-phosphorylation [7]: appear to induce alternative pathways including ERK1/2-phosphorylation | MC1R-induced melanogenesis [8]: no MC1R-induced melanogenesis | agonism at MC3R [9]: biased dual agonist at receptors MC1R and MC3R

solubility at 24 h ([1]; pH 1.29, 0.2 M HCl/KCl, initial pH 1.35 → 1.18, 24 h pH 1.29, input 38 mM, ambient temperature): 10.9 mM
Structure (SMILES): NC(N)=N/N=C/C=C/c1cccn1-c1ccccc1[N+](=O)[O-] [Fumarate Salt Pattern 1]

solubility at 24 h ([1]; pH 1.26, 0.2 M HCl/KCl, initial pH 1.22, 24 h pH 1.26, input 31 mM, ambient temperature): 0.31 mM | Solubility at low pH (in words) ([1]; low pH, e.g. pH 1.2-1.3 or pH 4.5): low solubility at low pH
Structure (SMILES): NC(N)=N/N=C/C=C/c1cccn1-c1ccccc1[N+](=O)[O-] [Tosylate Salt Pattern 1, 2-{3-[1-(2-nitrophenyl)-1H-pyrrol-2-yl]prop-2-en-1-ylidine}hydrazine-1-carboximidamide tosylate]
